From US7091202B2, “4-arylspirocycloalkyl-2-aminopyrimidine carboxamide KCNQ potassium channel modulators” (Bristol-Myers Squibb Company, priority 2004, dated 2006) come the findings set out here.

T1 sequence (O43526 whole entry): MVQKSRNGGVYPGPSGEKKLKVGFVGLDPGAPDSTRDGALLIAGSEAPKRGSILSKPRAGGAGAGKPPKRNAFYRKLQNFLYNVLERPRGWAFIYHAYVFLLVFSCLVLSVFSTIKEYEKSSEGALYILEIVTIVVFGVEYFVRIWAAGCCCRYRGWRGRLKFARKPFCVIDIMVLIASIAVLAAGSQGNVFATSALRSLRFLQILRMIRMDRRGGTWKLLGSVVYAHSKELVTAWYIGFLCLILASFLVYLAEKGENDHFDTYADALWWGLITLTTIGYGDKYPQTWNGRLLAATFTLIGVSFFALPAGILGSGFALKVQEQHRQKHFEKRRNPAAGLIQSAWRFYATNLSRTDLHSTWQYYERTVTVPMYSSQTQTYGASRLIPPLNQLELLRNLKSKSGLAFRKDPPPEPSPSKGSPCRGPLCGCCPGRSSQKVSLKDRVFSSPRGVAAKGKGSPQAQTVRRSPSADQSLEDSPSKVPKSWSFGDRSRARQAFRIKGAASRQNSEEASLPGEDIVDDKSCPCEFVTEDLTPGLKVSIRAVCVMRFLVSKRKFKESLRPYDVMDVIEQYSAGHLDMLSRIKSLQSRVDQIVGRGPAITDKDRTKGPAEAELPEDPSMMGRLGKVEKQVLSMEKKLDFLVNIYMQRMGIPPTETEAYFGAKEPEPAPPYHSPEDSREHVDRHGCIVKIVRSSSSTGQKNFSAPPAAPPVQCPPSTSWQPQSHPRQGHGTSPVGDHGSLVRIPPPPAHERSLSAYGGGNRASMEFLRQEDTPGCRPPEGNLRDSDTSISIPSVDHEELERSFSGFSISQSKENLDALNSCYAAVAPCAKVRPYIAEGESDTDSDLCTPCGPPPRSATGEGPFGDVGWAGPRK
T1 sequence (O43525 whole entry): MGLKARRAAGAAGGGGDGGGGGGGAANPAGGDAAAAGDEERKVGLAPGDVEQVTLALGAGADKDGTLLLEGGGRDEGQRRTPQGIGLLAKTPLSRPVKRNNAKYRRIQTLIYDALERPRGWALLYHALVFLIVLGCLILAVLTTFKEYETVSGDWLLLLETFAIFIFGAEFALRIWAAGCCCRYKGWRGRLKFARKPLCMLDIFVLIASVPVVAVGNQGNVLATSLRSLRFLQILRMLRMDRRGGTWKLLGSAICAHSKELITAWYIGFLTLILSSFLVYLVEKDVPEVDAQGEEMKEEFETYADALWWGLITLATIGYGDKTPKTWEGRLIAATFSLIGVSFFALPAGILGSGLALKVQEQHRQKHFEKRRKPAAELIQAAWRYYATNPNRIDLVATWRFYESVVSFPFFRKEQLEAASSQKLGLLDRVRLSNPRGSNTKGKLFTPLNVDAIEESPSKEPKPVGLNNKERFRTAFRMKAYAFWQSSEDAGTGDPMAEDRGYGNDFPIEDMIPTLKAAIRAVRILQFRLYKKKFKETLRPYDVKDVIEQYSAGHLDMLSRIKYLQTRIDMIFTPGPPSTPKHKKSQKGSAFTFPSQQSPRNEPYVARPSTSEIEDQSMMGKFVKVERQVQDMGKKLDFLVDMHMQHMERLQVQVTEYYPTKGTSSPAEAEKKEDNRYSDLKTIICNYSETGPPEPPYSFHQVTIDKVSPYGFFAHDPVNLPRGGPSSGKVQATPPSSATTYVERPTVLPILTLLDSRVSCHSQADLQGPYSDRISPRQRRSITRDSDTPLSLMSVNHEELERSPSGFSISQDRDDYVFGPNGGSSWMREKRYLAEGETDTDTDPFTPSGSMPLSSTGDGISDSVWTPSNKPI

The first assay concerns the target T1, hQ23 (HEK-293 cell line stably transfected with one of the members of the KCNQ family) (Homo sapiens, UniProt O43525+O43526).
T1 construct: expressed in transfected cells; host or cells: HEK-293, stably transfected
Description: Thallium flux assay for KCNQ channel blockers (FLIPR, BTC dye). Type of assay: cell-based. Conditions: Table 2; thallium flux, HEK-293. The method, boiled down: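 HEK-293 cells stably expressing a KCNQ member, loaded with BTC-AM (2 μM) in chloride-free buffer, pH 7.3; compounds added at 1% DMSO, then Tl2SO4 stimulus on FLIPR (488/540 nm, 60 s). Minimal active concentration set at ≥4 SD above negative control; IC50 from 10-point 1:3 series, single-site logistic fit versus the positive-control blocker.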
With `CC1CCC(Nc2ncc(C(=O)NCc3ccc(Cl)cc3Cl)c(C3(c4ccccc4)CC3)n2)CC1` (stereo not shown) [Example 39, 5-pyrimidinecarboxamide, N-[(2,4-dichlorophenyl)methyl]-2-[(4-methylcyclohexyl)amino]-4-(1-phenylcyclopropyl)-], the response was half-maximal at 551 nM (EC50).

The assay is the same for the next values; noted with them: Table 3; thallium flux, HEK-293.
Compound `CC1CCC(Nc2ncc(C(=O)NCc3ccc(F)cc3F)c(C3(c4ccc(Cl)cc4)CCC3)n2)CC1` (stereo not shown) [Example 65, 5-pyrimidinecarboxamide, 4-[1-(4-chlorophenyl)cyclobutyl]-N-[(2,4-difluorophenyl)methyl]-2-[(4-methylcyclohexyl)amino]-] yielded a concentration giving a half-maximal response (EC50) of 56 nM. In turn, `CC1CCN(c2ncc(C(=O)NCc3ccc4c(c3)OCO4)c(C3(c4ccc(Cl)cc4)CCC3)n2)CC1` [Example 58, 5-pyrimidinecarboxamide, N-(1,3-benzodioxol-5-ylmethyl)-4-[1-(4-chlorophenyl)cyclobutyl]-2-(4-methyl-1-piperidinyl)-] returned a 50% effective concentration (EC50) of 90 nM.

The assay is the same for the next values; noted with them: hQ23 cells, thallium flux.
`O=C(NCc1ccc(F)cc1F)c1cnc(NC2CCCC2)nc1C1(c2ccccc2)CCCC1` [Example 121, 5-pyrimidinecarboxamide, 2-(cyclopentylamino)-N-[(2,4-difluorophenyl)methyl]-4-(1-phenylcyclopentyl)-] came in with an EC50 of 24 nM.

In the case of `O=C(NCc1cc(F)cc(C(F)(F)F)c1)c1cnc(N2CCCC2)nc1C1(c2ccccc2)CCCC1` [Example 124, 5-pyrimidinecarboxamide, N-[[3-fluoro-5-(trifluoromethyl)phenyl]methyl]-4-(1-phenylcyclopentyl)-2-(1-pyrrolidinyl)-], the EC50 is 240 nM. In the case of `CC1CCCN(c2ncc(C(=O)NCc3cccc4ccccc34)c(C3(c4ccc(Cl)cc4)CCCC3)n2)C1` (stereo not shown) [Example 169, 5-pyrimidinecarboxamide, 4-[1-(4-chlorophenyl)cyclopentyl]-2-(3-methyl-1-piperidinyl)-N-(1-naphthalenylmethyl)-], a half-maximal effect (EC50) was put at 10 nM. Take `CCN(Cc1ccccc1)C(=O)c1cnc(N2CCCC(C)C2)nc1C1(c2ccccc2)CCCC1` (stereo not shown) [Example 85, 5-pyrimidinecarboxamide, N-ethyl-2-(3-methyl-1-piperidinyl)-4-(1-phenylcyclopentyl)-N-(phenylmethyl)-]: the 50% effective concentration (EC50) amounted to 161 nM. The same measure, in the same setting: as for `CCN(C)C(=O)c1cnc(NC2CCC(C)CC2)nc1C1(c2ccc(F)cc2)CCCC1` (stereo not shown) [Example 225, 5-pyrimidinecarboxamide, N-ethyl-4-[1-(4-fluorophenyl)cyclopentyl]-N-methyl-2-[(4-methylcyclohexyl)amino]-], the figure is 452 nM. `O=C(c1cnc(NC2CCCC2)nc1C1(c2ccccc2)CCCC1)N1CCc2ccccc2C1` [Example 75, isoquinoline, 2-[[2-(cyclopentylamino)-4-(1-phenylcyclopentyl)-5-pyrimidinyl]carbonyl]-1,2,3,4-tetrahydro-]: the EC50 was 950 nM.

`CC(NC(=O)c1cnc(NCCN(C)C)nc1C1(c2ccc(Cl)cc2)CCCC1)c1cccc2ccccc12` (stereo not shown) [Example 163, 5-pyrimidinecarboxamide, 4-[1-(4-chlorophenyl)cyclopentyl]-2-[[2-(dimethylamino)ethyl]amino]-N-[1-(1-naphthalenyl)ethyl]-] showed an EC50 of 705 nM.

As to “5-pyrimidinecarboxamide, 4-[1-(4-fluorophenyl)cyclopentyl]-N,N-bis(1-methylethyl)-2-(3-methyl-1-piperidinyl)- [Example 224]”, the midpoint of the response, the EC50, lay at 39 nM.

Turning to `CN(Cc1ccccc1)C(=O)c1cnc(N2CCCC2)nc1C1(c2ccccc2)CCCC1` [Example 69, 5-pyrimidinecarboxamide, N-methyl-4-(1-phenylcyclopentyl)-N-(phenylmethyl)-2-(1-pyrrolidinyl)-], it took 778 nM to reach a half-maximal effect (EC50). Against the preceding compound, the EC50 is about 20-fold higher. Turning to `CCN(C(=O)c1cnc(NC2CCCC2)nc1C1(c2ccc(F)cc2)CCCC1)C1CCCCC1` [Example 217, 5-pyrimidinecarboxamide, N-cyclohexyl-2-(cyclopentylamino)-N-ethyl-4-[1-(4-fluorophenyl)cyclopentyl]-], a half-maximal response (EC50) required 482 nM. Against the preceding compound, the EC50 is about 1.6-fold lower.

Compound `CC1CCCN(c2ncc(C(=O)NC(C)c3cccc4ccccc34)c(C3(c4ccc(Cl)cc4)CCCC3)n2)C1` (stereo not shown) [Example 160, 5-pyrimidinecarboxamide, 4-[1-(4-chlorophenyl)cyclopentyl]-2-(3-methyl-1-piperidinyl)-N-[1-(1-naphthalenyl)ethyl]-] showed an EC50 of 30 nM.

On to `CCC(C)Nc1ncc(C(=O)NCc2ccc(F)cc2F)c(C2(c3ccccc3)CCCC2)n1` (stereo not shown) [Example 120, 5-pyrimidinecarboxamide, N-[(2,4-difluorophenyl)methyl]-2-[(1-methylpropyl)amino]-4-(1-phenylcyclopentyl)-], for which the EC50 amounted to 62 nM. Same read-out and setting: as for `CC1CCN(c2ncc(C(=O)N3CCCC(C)C3)c(C3(c4ccc(F)cc4)CCCC3)n2)CC1` (stereo not shown) [Example 218, piperidine, 1-[[4-[1-(4-fluorophenyl)cyclopentyl]-2-(4-methyl-1-piperidinyl)-5-pyrimidinyl]carbonyl]-3-methyl-], the figure is 866 nM; as for `O=C(NCc1ccc(F)cc1F)c1cnc(N2CCCC2)nc1C1(c2ccccc2)CCCC1` [Example 117, 5-pyrimidinecarboxamide, N-[(2,4-difluorophenyl)methyl]-4-(1-phenylcyclopentyl)-2-(1-pyrrolidinyl)-], 127 nM; as for `CC1CCCN(c2ncc(C(=O)NCc3cc(F)cc(C(F)(F)F)c3)c(C3(c4ccc(Cl)cc4)CCCC3)n2)C1` (stereo not shown) [Example 192, 5-pyrimidinecarboxamide, 4-[1-(4-chlorophenyl)cyclopentyl]-N-[[3-fluoro-5-(trifluoromethyl)phenyl]methyl]-2-(3-methyl-1-piperidinyl)-], 10 nM.

`CCN(Cc1ccccc1)C(=O)c1cnc(NC2CCC(C)CC2)nc1C1(c2ccc(F)cc2)CCCC1` (stereo not shown) [Example 228, 5-pyrimidinecarboxamide, N-ethyl-4-[1-(4-fluorophenyl)cyclopentyl]-2-[(4-methylcyclohexyl)amino]-N-(phenylmethyl)-] yielded an EC50 of 637 nM. Same read-out and setting: to `CN(C)CCNc1ncc(C(=O)NCc2ccc(Cl)cc2Cl)c(C2(c3ccc(Cl)cc3)CCCC2)n1` [Example 184, 5-pyrimidinecarboxamide, 4-[1-(4-chlorophenyl)cyclopentyl]-N-[(2,4-dichlorophenyl)methyl]-2-[[2-(dimethylamino)ethyl]amino]-] belongs 709 nM; to `CC1CCN(c2ncc(C(=O)N(C)Cc3ccccc3)c(C3(c4ccccc4)CCCC3)n2)CC1` [Example 70, 5-pyrimidinecarboxamide, N-methyl-2-(4-methyl-1-piperidinyl)-4-(1-phenylcyclopentyl)-N-(phenylmethyl)-], 270 nM. Same read-out and setting: as for `CC1CCN(c2ncc(C(=O)N(C)CCc3ccccc3)c(C3(c4ccc(F)cc4)CCCC3)n2)CC1` [Example 222, 5-pyrimidinecarboxamide, 4-[1-(4-fluorophenyl)cyclopentyl]-N-methyl-2-(4-methyl-1-piperidinyl)-N-(2-phenylethyl)-], the figure is 273 nM; as for `CCN(Cc1ccccc1)C(=O)c1cnc(N2CCC(C)CC2)nc1C1(c2ccccc2)CCCC1` [Example 86, 5-pyrimidinecarboxamide, N-ethyl-2-(4-methyl-1-piperidinyl)-4-(1-phenylcyclopentyl)-N-(phenylmethyl)-], 334 nM.

The compound `CC1CCC(Nc2ncc(C(=O)N3CCc4ccccc4C3)c(C3(c4ccccc4)CCCC3)n2)CC1` (stereo not shown) [Example 73, isoquinoline, 1,2,3,4-tetrahydro-2-[[2-[(4-methylcyclohexyl)amino]-4-(1-phenylcyclopentyl)-5-pyrimidinyl]carbonyl]-] displayed a concentration giving a half-maximal response (EC50) of 798 nM. In turn, `CC1CCN(c2ncc(C(=O)NCc3cc(F)cc(C(F)(F)F)c3)c(C3(c4ccc(Cl)cc4)CCCC3)n2)CC1` [Example 193, 5-pyrimidinecarboxamide, 4-[1-(4-chlorophenyl)cyclopentyl]-N-[[3-fluoro-5-(trifluoromethyl)phenyl]methyl]-2-(4-methyl-1-piperidinyl)-] yielded an EC50 of 12 nM.

Still in this assay, the particulars now being: hQ23 cells, thallium flux assay.
Compound `O=C(NCc1cccc2ccccc12)c1cnc(N2CCCC2)nc1C1(c2ccc(F)cc2)CCCC1` [Example 249, 5-pyrimidinecarboxamide, 4-[1-(4-fluorophenyl)cyclopentyl]-N-(1-naphthalenylmethyl)-2-(1-pyrrolidinyl)-] displayed an EC50 of 278 nM. The same measure, in the same setting: to `CC1CCN(c2ncc(C(=O)NCc3cc(F)cc(C(F)(F)F)c3)c(C3(c4ccc(F)cc4)CCCC3)n2)CC1` [Example 278, 5-pyrimidinecarboxamide, 4-[1-(4-fluorophenyl)cyclopentyl]-N-[[3-fluoro-5-(trifluoromethyl)phenyl]methyl]-2-(4-methyl-1-piperidinyl)-] belongs 10 nM; to `CC1CCCN(c2ncc(C(=O)NC(C)c3ccc(F)cc3)c(C3(c4ccc(F)cc4)CCCC3)n2)C1` (stereo not shown) [Example 284, 5-pyrimidinecarboxamide, 4-[1-(4-fluorophenyl)cyclopentyl]-N-[1-(4-fluorophenyl)ethyl]-2-(3-methyl-1-piperidinyl)-], 78 nM; to `O=C(NCc1ccc(Cl)c(Cl)c1)c1cnc(NC2CCCC2)nc1C1(c2ccc(F)cc2)CCCC1` [Example 258, 5-pyrimidinecarboxamide, 2-(cyclopentylamino)-N-[(3,4-dichlorophenyl)methyl]-4-[1-(4-fluorophenyl)cyclopentyl]-], 91 nM.

`O=C(NCc1ccc2c(c1)OCO2)c1cnc(NC2CC2)nc1C1(c2ccc(F)cc2)CCCC1` [Example 233, 5-pyrimidinecarboxamide, N-(1,3-benzodioxol-5-ylmethyl)-2-(cyclopropylamino)-4-[1-(4-fluorophenyl)cyclopentyl]-]: a half-maximal response (EC50) required 436 nM. Still for that read-out and setting: as for `O=C(NCc1ccc(F)cc1F)c1cnc(NC2CCCC2)nc1C1(c2ccc(F)cc2)CCCC1` [Example 273, 5-pyrimidinecarboxamide, 2-(cyclopentylamino)-N-[(2,4-difluorophenyl)methyl]-4-[1-(4-fluorophenyl)cyclopentyl]-], the figure is 115 nM.

As a reminder, the EC50 is the concentration at which the effect is half-maximal. Low values mean higher potency in that assay, high ones lower potency in that assay.
